US20200384134A1, “IMAGING METHOD OF AMPA RECEPTORS IN BRAIN OF PRIMATE ORGANISM, PROGRAM, DIAGNOSTIC AGENT, COMPANION DIAGNOSTIC AGENT, DRUG, SCREENING METHOD, INPUT TERMINAL, SERVER AND SYSTEM” (Public University Corporation Yokohama City University, priority 2017, published 2020)

Legend:
[1] = test system: AMPA receptors in the brain; test: PET imaging in humans (healthy persons); format: in vivo, human; conditions: about 370 MBq i.v.
Description: PET imaging was performed on two human subjects. […] Absorption correction CT imaging was performed for about one minute, and then [^11C] K-2 of about 370 MBq was administered, as a PET drug, intravenously over one minute. Thereafter, imaging was performed for 120 minutes. For the imaging, a PET/CT device “Aquiduo” (Toshiba Medical Systems Corporation) was used. In list data which was collected, dynamic images were reconstructed by an OS-EM method.
(§1) The reconstructed image was analyzed with the PMOD image analysis software (PMOD technologies) by integrating VOIs including a plurality of regions of frontal lobe, dentate cortex, hippocampus, amygdala, putamen, cerebellum, bridge and the like with one formed on a template MRI image. […]
as §1, with “image. As a calculation value used in quantitative determination, % SUV (% of standardized uptake value) was used.” for “image.”

[2] = test system: WKY rat which was the depression model rat; test: Forced swimming test using rat; format: in vivo; conditions: FIG. 10
Description: In a forced swimming test, AMPA receptor-binding compounds K-2 and K-4 were dissolved in 100% DMSO (Nacalai Tesque, Inc. Japan) so as to have a concentration of 2.1 mM, were diluted with saline immediately before being administered (15% DMSO, 320 μM) and were intravenously administered to the rat with an administered amount of 5 μl/weight (g) such that the administered amount fell within a range of 1 mg/kg to 1.5 mg/kg.
In all animal experiments, the deliberation and the approval of the animal experiment committee in Yokohama City University were received (approval number: F-A-15-051). As rats, adult male Wistar rats which were 6 to 10 weeks old and Wistar Kyoto rats (WKY rats) which were depression model rats (Charles River, Japan) were used. In order to acquire a route for the repeated administration of K-2, a jugular vein cannula indwelling surgery was performed a week before the experiment. The rat was made to fall sleep with isoflurane (DS Pharma Animal Health, Japan), and thereafter, while anesthesia was maintained at an isoflurane concentration of 1.5% (air 2 L/minute), the jugular vein cannula indwelling surgery was performed. The skin of a neck was incised about 3 cm such that subcutaneous fat was opened, and thus a jugular vein was exposed. […]

AMPA receptors = test: AMPA receptor binding test (electrophysiological verification) in vitro; format: cell-based; conditions: FIG. 5

nonspecific accumulation caused by PET drug not bound to the AMPA receptors in the brain ([1]; between 30 and 60 minutes after administration, two human subjects)	uptake into the brain ([1]; healthy men, average 50 to 120 minutes, FIG. 12)	binding affinity to the AMPA receptors (AMPA receptors)	Structure (SMILES)	immobile time, K-4 compared with K-2 ([2]; chronic administration, 1 mg/kg)	immobile time, chronic administration experiment ([2]; i.v. for 7 days, 1 mg/kg to 1.5 mg/kg, compared with 15% DMSO)
remarkably washed out	high	–	[11CH3]N(CCSc1cc(F)c(OCC(N)=O)c(F)c1)S(=O)(=O)c1ccccc1 [[^11C] K-2, [4-[2-(benzenesulfonyl-[^11C]methyl-amino)-ethylsulfanyl]-2,6-difluorophenoxy]-acetamide]	–	–
–	–	indicated binding affinity	CN(C)C(=O)COc1c(F)cc(SCCN(C)S(=O)(=O)c2ccccc2)cc1F [Compound K-4, {4-[2-(benzenesulfonyl-methyl-amino)-ethylsulfanil]-2,6-difluoro-phenoxy}-N,N-dimethyl-acetamide]	significantly lowers the immobile time instead of K-2	significantly lowered
